{"source": "patent EP4800018A1", "about": "“PAN-KRAS INHIBITOR AND USE THEREOF IN MEDICINES” (Betta Pharmaceuticals Co., Ltd., priority 2023, dated 2025)", "key": {"[1]": {"test_system": "KRAS-G12D mutant tumor cells AGS", "assay": "Cell Proliferation Inhibition Assay (AGS), Cell-titer GLO, 96 h", "format": "cell-based", "details": "AGS cells, 96 h incubation, Cell-titer GLO, read-out: AGS(G12D)", "in_short": "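Inhibition % was derived from CellTiter-Glo luminescence (max minus measured, over max minus blank) and fitted to give IC50. Cells were KRAS-G12D AGS in low-attachment wells, treated for 96 h at 37°C.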"}, "[2]": {"test_system": "KRAS-G12V mutant tumor cells SW620", "assay": "Cell Proliferation Inhibition Assay (SW620), Cell-titer GLO, 96 h", "format": "cell-based", "details": "SW620 cells, 96 h incubation, Cell-titer GLO, read-out: SW620(G12V)", "in_short": "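Readout: Cell-titer GLO luminescence after 96 h at 37°C, converted to percent inhibition against 0.5% DMSO and blank controls, with IC50 from curve fit. Low-attachment SW620 cultures (1×10^3 cells/well) were dosed at 10000–0.03 nM final.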"}, "KRAS G12D-cRAF": {"molecular_target": "T1, KRAS G12D-cRAF (Homo sapiens, UniProt P01116, G12D)", "T1 construct": "expressed in transfected cells", "assay": "Cellular KRAS G12D-cRAF Binding Inhibition Assay (NanoBRET, AD293 stable cells)", "format": "cell-based", "details": "3 h incubation, read-out: NanoBRET KRAS G12D", "in_short": "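IC50 values derive from fitted % inhibition, normalised to maximum signal and medium-only blank. The read-out is NanoBRET between KRAS G12D-NanoLuc (donor) and cRAF RBD-HaloTag labelled with the 618 ligand (acceptor), in live stably transfected AD293 cells at 1×10^4/well.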"}, "KRAS G12V-cRAF": {"molecular_target": "T2, KRAS G12V-cRAF (Homo sapiens, UniProt P01116, G12V)", "T2 construct": "expressed in transfected cells", "assay": "Cellular KRAS G12V-cRAF Binding Inhibition Assay (NanoBRET, AD293 stable cells)", "format": "cell-based", "details": "3 h incubation, read-out: NanoBRET KRAS G12V", "in_short": "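Binding measured as BRET between NanoLuc and HaloTag-bound NanoBRET 618 ligand (added overnight) in stably expressing AD293 cells. Signals were converted to percent inhibition against max and blank wells and fitted for IC50.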"}, "[3]": {"assay": "PK Study of Compounds in Rats", "format": "in vivo, Male SD rats", "details": "mean; for F: PO 10 mg/kg vs IV 1 mg/kg (n=3); for Cmax: read-out: C0/Cmax", "description": "The test compound was mixed with the vehicle (10% DMSO/5% Solutol/85% physiological saline), vortexed and sonicated to prepare a clear 0.5 mg/mL intravenous injection solution. The test compound was mixed with the vehicle (20% PEG400/10% Solutol/70% pH 4.5 acetate buffer), vortexed and sonicated to prepare a clear 1 mg/mL oral solution. Male SD rats aged 6 to 7 weeks were selected and administered the test compound via intravenous (IV) and oral (PO) routes, respectively. Whole blood samples were collected at 5 min, 15 min, 30 min, 1 h, 2 h, 4 h, 7 h, and 24 h for the intravenous route, and at 15 min, 30 min, 1 h, 2 h, 4 h, 7 h, and 24 h for the oral route. Drug concentrations were analyzed by LC-MS/MS method, and pharmacokinetic parameters were calculated using Phoenix WinNonlin software (Pharsight, USA)."}, "[4]": {"details": "male, SD, rat, whole blood, IV 1 mg/kg (n=3)"}, "[5]": {"details": "male, SD, rat, whole blood, PO 10 mg/kg (n=3)"}}, "note": "pIC50: −log10 of the molar value. Like-named read-outs stand apart in the source and are kept apart here.", "data": [{"compound": "CC1OCCCn2c(c3c4cc(ccc42)-c2csc(n2)CC(NC(=O)C24CC(C)(C2)C4)C(=O)N2CCCC(N2)C(=O)OCC(C)(C)C3)-c2cc(N3CC(C)N(C)C(C)C3)cnc21", "note": "[Example 172, 3-methyl-N-((1^5S,6^3S,4S,Z)-1^5,10,10-trimethyl-5,7-dioxo-1^2-((3S,5S)-3,4,5-trimethylpiperazin-1-y)-1^8,1^9,6^1,6^2,6^3,6^4,6^5,6^6-octahydro-1^5H,1^7H-8-oxa-1(13,15)-pyrido[3',2':7,8][1,5]oxazonino[5,6-a]indola-2(4,2)-thiazola-6(1,3)-pyridazinacycloundecaphane-4-yl)bicyclo[1.1.1]pentane-1-carb oxamide]", "values": [{"measurement": "pIC50", "setting": "[1]; Homo sapiens, AGS, 96 h", "value": 8.96}, {"measurement": "pIC50", "setting": "[2]; Homo sapiens, SW-620, 96 h", "value": 9.49}, {"measurement": "pIC50", "setting": "KRAS G12D-cRAF", "value": 8.69}, {"measurement": "pIC50", "setting": "KRAS G12V-cRAF", "value": 8.17}]}, {"compound": "CC1OCCCn2c(c3c4cc(ccc42)-c2csc(n2)CC(NC(=O)C2CC2C)C(=O)N2NC(C(=O)OCC(C)(C)C3)C3CC2C3)-c2cc(N3CCN(C)CC3)cnc21", "note": "[Example 183, (1S,2S)-2-methyl-N-((1^5S,6^4S,4S,Z)-1^5,10,10-trimethyl-1^2-(4-methylpiperazin-1-yl)-5,7-dioxo-1 ^8,1^9-dihydro-1^5H,1^7H-8-oxa-6^2,6^3-diaza-1(13,15)-pyrido[3',2':7,8][1,5]oxazonino[5,6-a]indola-2(4,2)-thiazola-6(2,4)-bicyclo[3.1.1]heptanacycloundecaphane-4-yl)cyclopropane-1-carboxamide]", "values": [{"measurement": "pIC50", "setting": "[1]; Homo sapiens, AGS, 96 h", "value": 8.70}, {"measurement": "pIC50", "setting": "[2]; Homo sapiens, SW-620, 96 h", "value": 9.22}, {"measurement": "pIC50", "setting": "KRAS G12D-cRAF", "value": 8.57}, {"measurement": "pIC50", "setting": "KRAS G12V-cRAF", "value": 7.75}]}, {"compound": "CC1OCCCn2c(c3c4cc(ccc42)-c2csc(n2)CC(NC(=O)C2C4COCC42)C(=O)N2NC(C(=O)OCC(C)(C)C3)C3CC2C3)-c2cc(N3CCN(C)CC3)cnc21", "note": "[Example 192, (1R,5S,6r)-N-((1^5S,6^4S,4S,Z)-1^5,10,10-trimethyl-1^2-(4-methylpiperazin-1-yl)-5,7-dioxo-1^8,1^9-dihydro-1^5H,1^7H-8-oxa-6^2,6^3-diaza-1(13,15)-pyrido[3',2':7,8][1,5]oxazonino[5,6-a]indola-2(4,2)-thiazola-6(2,4)-bicyclo[3.1.1]heptanacycloundecaphane-4-yl)-3-oxabicyclo[3.1.0]hexane-6-carboxamide]", "values": [{"measurement": "pIC50", "setting": "[1]; Homo sapiens, AGS, 96 h", "value": 8.82}, {"measurement": "pIC50", "setting": "[2]; Homo sapiens, SW-620, 96 h", "value": 9.05}, {"measurement": "pIC50", "setting": "KRAS G12D-cRAF", "value": 8.37}, {"measurement": "pIC50", "setting": "KRAS G12V-cRAF", "value": 7.79}, {"measurement": "F", "setting": "[3]", "value": 11.9}, {"measurement": "clearance", "setting": "[3]; [4]", "value": 3.59, "unit": "mL/min/kg"}, {"measurement": "half-life", "setting": "[3]; [4]", "value": 4.93, "unit": "h"}, {"measurement": "AUC(0-t)", "setting": "[3]; male, SD, rat, whole blood, IV 1 mg/kg (n=3), read-out: AUC0-t", "value": 4500, "unit": "ng·h/mL"}, {"measurement": "Cmax", "setting": "[3]; [4]", "value": 4220, "unit": "ng/mL"}, {"measurement": "Vd", "setting": "[3]; male, SD, rat, whole blood, IV 1 mg/kg (n=3), read-out: Vss", "value": 1.11, "unit": "L/kg"}, {"measurement": "half-life", "setting": "[3]; [5]", "value": 5.13, "unit": "h"}, {"measurement": "AUC(0-t)", "setting": "[3]; male, SD, rat, whole blood, PO 10 mg/kg (n=3), read-out: AUC0-t", "value": 5350, "unit": "ng·h/mL"}, {"measurement": "Cmax", "setting": "[3]; [5]", "value": 472, "unit": "ng/mL"}, {"measurement": "Tmax", "setting": "[3]; male, SD, rat, whole blood, PO 10 mg/kg (n=3), read-out: Tmax", "value": 3.33, "unit": "h"}]}, {"compound": "CC1OCCCn2c(c3c4cc(ccc42)-c2csc(n2)CC(NC(=O)C2C(C)C2C)C(=O)N2CCCC(N2)C(=O)OCC(C)(C)C3)-c2cc(CN3CCN(C)CC3)cnc21", "note": "[Example 193, (1r,2R,3S)-2,3-dimethyl-N-((1^5S,6^3S,4S,Z)-1^5,10,10-trimethyl-1^2-((4-methylpiperazin-1-yl)methyl)-5,7-dioxo-1^8,1^9,6^1,6^2,6^3,6^4,6^5,6^6-octahydro-1^5H,1^7H-8-oxa-1(13,15)-pyrido[3',2':7,8][1,5]oxazonino[5,6-a]indola-2(4,2)-thiazola-6(1,3)-pyridazinacycloundecaphane-4-yl)cyclopropane-1-car boxamide]", "values": [{"measurement": "pIC50", "setting": "[1]; Homo sapiens, AGS, 96 h", "value": 9.05}, {"measurement": "pIC50", "setting": "[2]; Homo sapiens, SW-620, 96 h", "value": 9.70}, {"measurement": "pIC50", "setting": "KRAS G12D-cRAF", "value": 8.92}, {"measurement": "pIC50", "setting": "KRAS G12V-cRAF", "value": 7.57}]}, {"compound": "CCN1CCN(c2cnc3c(c2)-c2c4c5cc(ccc5n2CCCOC3C)-c2coc(n2)CC(NC(=O)C2C(C)C2C)C(=O)N2NC(C(=O)OCC(C)(C)C4)C3CC2C3)CC1", "note": "[Example 197, (1r,2R,3S)-N-((1^5S,6^4S,4S,Z)-1^2-(4-ethylpiperazin-1-yl)-1^5,10,10-trimethyl-5,7-dioxo-1^8,1^9-dihydro-1^5H,1^7H-8-oxa-6^2,6^3-diaza-1(13,15)-pyrido[3',2':7,8][1,5]oxazonino[5,6-a]indola-2(4,2)-oxazola-6(2,4)-bicyclo[3.1.1]heptanacycloundecaphane-4-yl)-2,3-dimethylcyclopropane-1-carboxamide]", "values": [{"measurement": "pIC50", "setting": "[1]; Homo sapiens, AGS, 96 h", "value": 10.52}, {"measurement": "pIC50", "setting": "[2]; Homo sapiens, SW-620, 96 h", "value": 11.00}, {"measurement": "pIC50", "setting": "KRAS G12D-cRAF", "value": 9.52}, {"measurement": "pIC50", "setting": "KRAS G12V-cRAF", "value": 8.70}]}, {"compound": "(1S,2S)-2-(difluoromethyl)-N-((1^5S,6^3S,4S,Z)-1^5,10,10-trimethyl-1^2-(6-methyl-3,6-diazabicyclo[ 3.1.1]heptan-3-yl)-5,7-dioxo-1^8,1^9,6^1,6^2,6^3,6^4,6^5,6^6-octahydro-1^5H,1^7H-8-oxa-1(13,15)-pyrido[3', 2':7,8][1,5]oxazonino[5,6-a]indola-2(4,2)-thiazola-6(1,3)-pyridazinacycloundecaphane-4-yl)cycl opropane-1-carboxamide [Example 150]", "values": [{"measurement": "pIC50", "setting": "[1]", "value": 9.03}, {"measurement": "pIC50", "setting": "[2]", "value": 9.80}, {"measurement": "pIC50", "setting": "KRAS G12D-cRAF", "value": 8.79}, {"measurement": "pIC50", "setting": "KRAS G12V-cRAF", "value": 8.09}]}, {"compound": "(1S,2S)-2-(difluoromethyl)-N-((1^5S,6^4S,4S,Z)-1^5,10,10-trimethyl-1^2-(4-methylpiperazin-1-yl)-5, 7-dioxo-1^8,1^9-dihydro-1^5H,1^7H-8-oxa-6^2,6^3-diaza-1(13,15)-pyrido[3',2':7,8][1,5]oxazonino[5,6-a ]indola-2(4,2)-thiazola-6(2,4)-bicyclo[3.1.1]heptanacycloundecaphane-4-yl)cyclopropane-1-carb oxamide [Example 184]", "values": [{"measurement": "pIC50", "setting": "[1]", "value": 9.05}, {"measurement": "pIC50", "setting": "[2]", "value": 9.19}, {"measurement": "AUC(0-t)", "setting": "[3]; IV 1 mg/kg (n=3)", "value": 5558, "unit": "ng·h/mL"}, {"measurement": "CL", "setting": "[3]; IV 1 mg/kg (n=3)", "value": 2.56, "unit": "mL/min/kg"}, {"measurement": "T1/2", "setting": "[3]; IV 1 mg/kg (n=3)", "value": 9.07, "unit": "h"}, {"measurement": "Vss", "setting": "[3]; IV 1 mg/kg (n=3)", "value": 1.71, "unit": "L/kg"}, {"measurement": "AUC(0-t)", "setting": "[3]; PO 10 mg/kg (n=3)", "value": 10910, "unit": "ng·h/mL"}, {"measurement": "Tmax", "setting": "[3]; PO 10 mg/kg (n=3)", "value": 3.33, "unit": "h"}, {"measurement": "F", "setting": "[3]", "value": 19.6}]}]}
